Where two headings read alike, the source gives them in different places.
Assay: Serum concentration and pharmacokinetics of SCI after oral gavage in Wistar rats
Assay type: in vivo, Wistar rat
Details: for AUC(0-t) / Cmax / Tmax / k el / MRT / half-life: male, Wistar, rat, po, 10 mg/kg; for k el: read-out: K (elimination rate constant) (converted); for MRT: read-out: MRT (mean residence time); for half-life: read-out: T0.5e (elimination half-life) (converted)
Procedure: All procedures were performed according to the Local Ethical Committee of Experiments on Animals guidelines in Olsztyn, Poland. The experiment was conducted in the same way as described by Antonowski et al.. Briefly, the experiment was performed on male Wistar rats (n = 6). Rats were maintained in ventilated rooms under a standard day photoperiod (12:12 h light–dark) as well as with lights on from 700 to 1900 h at 21 °C. All rats had free access to food and water. At 42 days of age, rats were randomized into experimental groups (Table 1 and Table 4).
Before the administration of cyclitol (10 mg/kg), the rats were fasting for 12 h (Table 1). […] Access to water was unlimited during the experiments. The study group (n = 6) was divided into two subgroups (n = 3 rats per subgroup). This practice allows for the use of only 6 rats for the entire experiment in accordance with the 3 Rs principle. Rats received the compound at a dose of 10 mg/kg body weight. Rats were weighed before starting the compound administration. Cyclitol was administered to the rats from the study group using a stainless-steel gastric tube with a ball tip (manufacturer—Agnthos, curved gastric tube, 16G, 3 mm tip, 75 mm). Cyclitol was dissolved in distilled water to a maximum volume of 1 mL. The prepared solution was administered to the animal.
Blood samples were collected into Eppendorf tubes and were centrifuged at 2500× g for 10 min at 8 °C the following day. Blood was harvested from the tail at a specific time. […] Serum was stored at −80 °C for subsequent analyses.
The analysis is described in detail by Antonowski and co-workers. Briefly, the first step was to remove the protein, then concentrate the sample in a speed vacuum evaporator to dryness. Next, samples were analyzed using the high-resolution gas chromatography method. We used a gas chromatograph GC2010Plus (Shimadzu, Tokyo, Japan) with a capillary column ZEBRON ZB-1 (15 m length, 0.25 mm diameter, and 0.1 μm film thickness, Phenomenex, Torrance, CA, USA). Helium was used as a carrier gas (at a flow rate of 1.18 mL min^−1). […] Finally, scyllo-inositol was quantified by using a standard.
The PK parameters were calculated using PK Solver. PKSolver is an add-in program for pharmacokinetic and pharmacodynamic data analysis […]. […] The area under the drug concentration–time curve from time zero to the time of the last quantifiable concentration (AUClast) was calculated using the trapezoidal rule. The volume over which the drug was distributed (Vd) and clearance (CL) were conducted by PK Solver. […] Nevertheless, we estimated K by log-linear regression analysis on data points on the terminal log-linear phase. Noncompartmental analysis is generally the preferred methodology to use in that it requires fewer assumptions than model-based approaches. We presented the results for individual rats, subgroups of rats, and for all subjects studied. The content of scyllo-inositol was calculated from the standard curves of appropriate components. To determine the terminal phase, […] was sufficient.
An analysis of all parameters was carried out with GraphPad Prism software (Version 10 Graph Pad Software Inc., La Jolla, CA, USA). Data are expressed as means ± SEM or individual data. Briefly, AUClast was calculated using the trapezoidal method. The T0.5 of oral administration was calculated as 0.693/K.

[1] = serum, Mean of rats 1–3 ± SEM, oral 10 mg/kg
[2] = serum, Mean of rats 1–3 ± SEM, serum, oral 10 mg/kg
[3] = serum, Mean of rats 4–6 ± SEM, oral 10 mg/kg
[4] = serum, Mean of rats 4–6 ± SEM, serum, oral 10 mg/kg
[5] = serum, Rat No 1, serum, oral 10 mg/kg
[6] = serum, Rat No 2, serum, oral 10 mg/kg
[7] = serum, Rat No 3, serum, oral 10 mg/kg
[8] = serum, Rat No 4, serum, oral 10 mg/kg
[9] = serum, Rat No 5, serum, oral 10 mg/kg
[10] = serum, Rat No 6, serum, oral 10 mg/kg
[11] = serum, mean serum profile of six rats, oral 3.92 mg SCI (10 mg/kg)
[12] = mean serum profile of six rats, oral 3.92 mg SCI (10 mg/kg)

AUC(0-t) [1]: 36400 ± 3390 ng·h/mL | Cmax [1]: 6730 ± 291 ng/mL | Tmax [1]: 1.33 ± 0.167 h | k el [2]: 0.000237 s⁻¹ | MRT [2]: 36.2 ± 20.7 h | half-life [2]: 25.1 ± 14.3 h | AUC(0-t) [3]: 19800 ± 4260 ng·h/mL | Cmax [3]: 4900 ± 874 ng/mL | Tmax [3]: 2.67 ± 0.667 h | k el [4]: 0.000126 s⁻¹ | MRT [4]: 3.6 ± 1.48 h | half-life [4]: 2.5 ± 1.02 h | AUC(0-t) (serum, Rat No 1, oral 10 mg/kg): 40800 ng·h/mL | Cmax (serum, Rat No 1, oral 10 mg/kg): 7200 ng/mL | Tmax (serum, Rat No 1, oral 10 mg/kg): 1.5 h | k el [5]: 0.0007 s⁻¹ | MRT [5]: 0.397 h | half-life [5]: 0.275 h | AUC(0-t) (serum, Rat No 2, oral 10 mg/kg): 38600 ng·h/mL | Cmax (serum, Rat No 2, oral 10 mg/kg): 6200 ng/mL | Tmax (serum, Rat No 2, oral 10 mg/kg): 1.5 h | k el [6]: 3.85e-06 s⁻¹ | MRT [6]: 72.1 h | half-life [6]: 50 h | AUC(0-t) (serum, Rat No 3, oral 10 mg/kg): 29700 ng·h/mL | Cmax (serum, Rat No 3, oral 10 mg/kg): 6800 ng/mL | Tmax (serum, Rat No 3, oral 10 mg/kg): 1 h | k el [7]: 7.67e-06 s⁻¹ | MRT [7]: 36.3 h | half-life [7]: 25.1 h | AUC(0-t) (serum, Rat No 4, oral 10 mg/kg): 11400 ng·h/mL | Cmax (serum, Rat No 4, oral 10 mg/kg): 3200 ng/mL | Tmax (serum, Rat No 4, oral 10 mg/kg): 2 h | k el [8]: 0.000253 s⁻¹ | MRT [8]: 1.1 h | half-life [8]: 0.761 h | AUC(0-t) (serum, Rat No 5, oral 10 mg/kg): 25300 ng·h/mL | Cmax (serum, Rat No 5, oral 10 mg/kg): 6100 ng/mL | Tmax (serum, Rat No 5, oral 10 mg/kg): 4 h | k el [9]: 4.47e-05 s⁻¹ | MRT [9]: 6.21 h | half-life [9]: 4.31 h | AUC(0-t) (serum, Rat No 6, oral 10 mg/kg): 22600 ng·h/mL | Cmax (serum, Rat No 6, oral 10 mg/kg): 5400 ng/mL | Tmax (serum, Rat No 6, oral 10 mg/kg): 2 h | k el [10]: 7.95e-05 s⁻¹ | MRT [10]: 3.5 h | half-life [10]: 2.42 h | AUC(0-t) [11]: 23500 ng·h/mL | Cmax [11]: 5930 ng/mL | Tmax [11]: ~1.5 h | k el [11]: 1.91e-05 s⁻¹ | MRT [11]: 14.5 h | half-life [11]: 10.1 h | CL [12]: 0.167 L/h | Vd [12]: 2.43 L | Time of highest average serum concentration (rats no. 1–3 (sampled 0–1.5, 12, 24 h), oral 10 mg/kg): 1.5 h | Time of highest average serum concentration (rats no. 4–6 (sampled 2–48 h), oral 10 mg/kg): 2 h | Time of first measurement of SCI concentration greater than 0 mg/L (serum, after oral 10 mg/kg): 30 min
Structure (SMILES): O[C@H]1[C@H](O)[C@@H](O)[C@H](O)[C@@H](O)[C@@H]1O [SCI, scyllo-inositol]
Side effects of SCI supplementation noticed during the study (oral 10 mg/kg, up to 48 h): no side effects

— paper PMC12299890 (Pharmaceuticals, 2025)
